Data as given in US7074595B2, “General means of labeling protein by using wheat embryo cell-free protein synthesis system” (CellFree Sciences Co., Ltd., priority 2000, dated 2006).

Legend:
Type in all cases: biochemical
Details in all cases: NADPH
[1] = target: T1, dihydrofolate reductase (DHFR), natural-type methionine-containing (Met-DHFR) (Escherichia coli, UniProt P0ABQ4); assay: enzymatic properties of DHFR (Table 1): Michaelis constant and maximum velocity, Met-DHFR
T1 construct: made in house; host or cells: wheat embryo extract cell-free protein synthesis (dialysis type)
T1 sequence (P0ABQ4 1-159): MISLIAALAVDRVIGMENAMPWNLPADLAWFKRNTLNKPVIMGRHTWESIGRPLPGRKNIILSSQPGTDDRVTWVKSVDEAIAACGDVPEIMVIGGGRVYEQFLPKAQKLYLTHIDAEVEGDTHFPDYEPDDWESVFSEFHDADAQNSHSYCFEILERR
Protocol: (§1) Purification of GFP and measurement of its activity by analysis of fluorescence spectrum using a fluorospectrophotometer were carried out in accordance with a method by Deschamps, et al. [Deschamps, J. R. et al., (1995) Protein Expression and Purification, 6, 555–558]. In the measurement of fluorescence spectrum, a fluorophotometer of type RF-5000 by Shimadzu was used. DHFR activity was measured by a method of Stanley, et al. [Methods. Enzymol. 18, 195–199 (1971)].
(§2) Then enzymatic properties of the selenomethionine-containing proteins purified as such were investigated biochemically. Fluorescence emission spectrum of a certain concentration of the purified GFP preparation shown in FIG. 2 excited at the wavelength of 395 nm was measured within a range of 410 nm to 600 nm and the result is shown in FIG. 3. As will be apparent from FIG. 3, there is no difference between the fluorescence emission spectra of GFP [(A) in FIG. 3] and selenomethionine GFP [(B) in FIG. 3]. Thus, the conclusion is that the change in GFP activity by substituting methionine residue with selenomethionine is not higher than the usual measurement sensitivity. […]

[2] = target: T2, dihydrofolate reductase (DHFR), Heavy Hydrogen-Labeled DHFR (20 kinds of heavy hydrogen-labeled L-amino acids) (Escherichia coli, UniProt P0ABQ4); assay: enzymatic properties of DHFR (Table 2): Michaelis constant and maximum velocity, Heavy Hydrogen-Labeled DHFR
T2 construct: made in house; host or cells: wheat embryo extract cell-free protein synthesis (dialysis type)
T2 sequence (P0ABQ4 1-159): T1 sequence (P0ABQ4 1-159)
Protocol: as §1
With regard to the wheat embryo, that being contaminated with substantially no endosperm component prepared by the method mentioned in Example 1 was used. Preparation of an extract from wheat embryo was carried out by the exactly same method as Example 1 except that the solution for extraction and the solution used for gel filtration contained 20 kinds of heavy hydrogen-labeled L-amino acids instead of 20 kinds of selenomethionine-containing L-amino acids. Concentration of the prepared extract was adjusted to 170˜250 A260 nm (A260/A280=1.5).
Although the composition of the protein synthesis reaction solution is as same as that described in Example 1, it contains 20 kinds of heavy hydrogen-labeled L-amino acids instead of 20 kinds of selenomethionine-containing L-amino acids.
Then enzymatic properties of the purified heavy hydrogen-labeled DHFR were biochemically investigated by the same manner as in Example 1. […]

[3] = target: T3, dihydrofolate reductase (DHFR), Natural-Type DHFR (Escherichia coli, UniProt P0ABQ4); assay: enzymatic properties of DHFR (Table 2): Michaelis constant and maximum velocity, Natural-Type DHFR
T3 construct: made in house; host or cells: wheat embryo extract cell-free protein synthesis (dialysis type)
T3 sequence (P0ABQ4 1-159): T1 sequence (P0ABQ4 1-159)
Protocol: as §1
Then enzymatic properties of the purified heavy hydrogen-labeled DHFR were biochemically investigated by the same manner as in Example 1. As will be apparent from Table 2, both Vmax and Michaelis constant (Km) to NADPH which are parameters for enzymatic chemical property of natural-type DHFR and heavy hydrogen-labeled DHFR show no difference between both enzymes. Thus, it became clear that DHFR comprising heavy hydrogen-labeled amino acids maintained nearly the same enzymatic activity as the natural-type DHFR.

[4] = target: T4, dihydrofolate reductase (DHFR), selenomethionine-containing (SeMet-DHFR) (Escherichia coli, UniProt P0ABQ4); assay: enzymatic properties of DHFR (Table 1): Michaelis constant and maximum velocity, SeMet-DHFR
T4 construct: made in house; host or cells: wheat embryo extract cell-free protein synthesis (dialysis type)
T4 sequence (P0ABQ4 1-159): T1 sequence (P0ABQ4 1-159)
Protocol: as §1, §2

With `NC(=O)C1=CN([C@@H]2O[C@H](COP(=O)(O)OP(=O)(O)OC[C@H]3O[C@@H](n4cnc5c(N)ncnc54)[C@H](OP(=O)(O)O)[C@@H]3O)[C@@H](O)[C@H]2O)C=CC1` [NADPH, nicotinamide adenine dinucleotide phosphate (NADPH) of a reduced type] the “maximum velocity Vmax” value [1] was 0.143 A560 nm/μg/min, the Vmax [2] was 0.261 A560 nm/μg/min and the Vmax [3] was 0.127 A560 nm/μg/min. The “maximum velocity Vmax” value [4] was 0.137 A560 nm/μg/min.
